In US20240093034A1, “FLUORESCENT DYES” (EXOPHARM LIMITED, priority 2020, published 2024):

What was measured:
platelet-derived EVs = assay: Labelling of extracellular vesicles with dyes (Superose 6 HPLC, UV and FLD detection); conditions: EV + 2 μM dye; for FLD area (EV + dye): 1 hr 37° C., void peak area, 562 nm/583 nm (Ex/Em); for Area FLD/Area UV (EV + dye): higher ratio = greater incorporation
Experimental: Labelling of extracellular vesicles (EVs) with dyes 1-10 was performed according to the following procedure. 20 μL of platelet-derived EVs were incubated in HPLC vials with or without each dye at a final concentration of 2 μM dye, the dye stock solution being made up in water. For negative controls, an equivalent volume of the diluent solution was added to the EV solution. The sample was mixed gently. Each sample was subsequently incubated for 1 hr at 37° C. Samples were transferred and stored in the autosampler set at 4° C. A batch table was setup that injected unlabelled EVs prior to labelled EVs. A blank injection was run after each labelled EV experiment to ensure there was no carryover. 15 μL of each sample was injected onto a Superose 6 Increase column (3.2/300) from Cytiva. The flow rate was set at 0.15 mL min* The Shimadzu BioHPLC was run in isocratic mode with Buffer A: 1× PBS (phosphate-buffered saline), pH 7.4, 100 nm filtered. The column oven temperature was set at 30° C. Total run duration was 30 min. Data was collected using two detectors. The PDA (UV detector) was set to scan from 190-800 nm and a channel of the FLD (fluorescence detector) was set at 562 nm/583 nm (Ex/Em). Titration experiments were conducted to confirm that excess dye was removed. The areas of the void peaks from the 214 nm absorption and the 583 nm emission were calculated by the LabSolutions software using the manual integration function. To normalise the fluorescent signal, the total fluorescent area was divided by the UV 214 nm area. This ratio can be used to rank each dye, with higher ratios indicative of greater incorporation.

[1] = system: normal human dermal fibroblasts (NHDF); assay: Labelling of human cells with dyes (plate fluorescence); format: cell-based; conditions: 2 μM dye, 1 hr 37° C., washed with HBSS; higher = more incorporation
Experimental: Labelling of human cells with dyes 1-10 was performed according to the following procedure. Each well of a Costar 96 well flat bottom plate was seeded with 5,000 normal human dermal fibroblasts (NHDF; not older than P9) and allowed to attach overnight in full media: fibroblast growth media (Lonza)+2% v/v fetal calf serum. Each dye was diluted 1:50 from a stock of 1 mM with 10 mM L-histidine, 150 mM NaCl, pH 6.0, to a final concentration of 20 μM. The dye was subsequently added to full media at a further 1:10 dilution to a final concentration of 2 μM. The media on the cells was subsequently replaced with the freshly prepared full media containing the dye. For negative controls, an equivalent volume of the diluent solution was added to the cell solution. Cells were incubated for 1 hr at 37° C. and then washed with 1 xHBSS (Hank's balanced salt solution) to remove free dye. Plate was imaged using the CLARIOStar spectrophotometer (5x5 matrix mode, average of 25 data points, 3 wells for each dye). A higher fluorescence indicates a higher amount of incorporation into the cells.

NHDF cells = assay: Labelling of NHDF cells with dyes alone and with EVs (Plexaris) labelled with dyes; format: cell-based, human; conditions: for incorporation into NHDFs, Plexaris (PLX)+dye (FIG. 6): Example 9, 0.2 μM dye, 1 hr 37° C.; for extent of incorporation into cells versus dye 2 alone (FIG. 4(a)) / extent of incorporation into cells versus PLX+dye 2 (FIG. 4(b)): 0.2 μM; for extent of incorporation into cells versus dye 2 alone (FIG. 4(a)): normalised to dye 2; for extent of incorporation into cells versus PLX+dye 2 (FIG. 4(b)): dye with PLX, normalised to Plexaris+dye 2
Experimental: (§1) Labelling of NHDF cells with dyes 11-18 alone and EVs labelled with dyes 11-18 was performed according to the following procedure. Each well of a Costar 96 well flat bottom plate was seeded with 5,000 normal human dermal fibroblasts (NHDF; not older than P9) and allowed to attach overnight in full media: fibroblast growth media (Lonza)+2% v/v fetal calf serum. Each dye was diluted in water to a final concentration of 1 mM. The dyes were then diluted to a final concentration of 2 μM in either a base formulation (1× PBS) or a sample of Plexaris (purified EVs derived from platelets) in 1× PBS and incubated at 1 hr at 37° C. The dyes were subsequently added onto the NHDFs at a further 1:10 dilution to a final concentration of 0.2 μM. Cells were incubated for 1 hr at 37° C. and then washed with 1× HBSS (Hank's balanced salt solution) to remove free dye. Plate was imaged using the CLARIOStar spectrophotometer (5×5 matrix mode, average of 25 data points, 3 wells for each dye). The data was normalised against either dye 2 or Plexaris+dye 2. A higher fluorescence indicates a higher amount of incorporation into the cells.
as §1, with “with” for “with dyes 11-18 alone and”, “4, 6, 17, 18, 23, 24 and 25” for “11-18”, “phosphate buffered saline (PBS)” for “water”, “in” for “in either a base formulation (1× PBS) or a sample of”, “in” for “in 1×”, “against” for “against either dye 2 or”

| SMILES | FLD area (EV + dye) (platelet-derived EVs) | Area FLD/Area UV (EV + dye) (platelet-derived EVs) | FLD [1] | incorporation into NHDFs, Plexaris (PLX)+dye (FIG. 6) (NHDF cells) | extent of incorporation into cells versus dye 2 alone (FIG. 4(a)) (NHDF cells) | extent of incorporation into cells versus PLX+dye 2 (FIG. 4(b)) (NHDF cells) |
| --- | --- | --- | --- | --- | --- | --- |
| CCCCCCCCCCCCCCCCN(C)C(=O)c1ccccc1-c1c2ccc(=[N+](CC)CC)cc-2oc2cc(N(CC)CC)ccc12.[Cl-] [Dye 1, Rhodamine B N-methylhexadecylamide] | 2281007 | 2.09 | 120641 |  |  |  |
| CCCCCCCCCCCCCCCCCCCCN(C)C(=O)c1ccccc1-c1c2ccc(=[N+](CC)CC)cc-2oc2cc(N(CC)CC)ccc12.[Cl-] [Dye 3, Rhodamine B N-methylicosaneamide] | 4270562 | 3.63 | 43073 |  |  |  |
| CCCCCCCCCCCCCCCCCCCCCCN(C)C(=O)c1ccccc1-c1c2ccc(=[N+](CC)CC)cc-2oc2cc(N(CC)CC)ccc12.[Cl-] [Dye 4] | 1901680 | 2.08 | 18027 | found to incorporate into NHDFs |  |  |
| CCCCCCCCCCCCCCN(CCCCC)C(=O)c1ccccc1-c1c2ccc(=[N+](CC)CC)cc-2oc2cc(N(CC)CC)ccc12.[Cl-] [Dye 5, Rhodamine B N-pentyltetradecanamide] | 2405326 | 1.25 | 106332 |  |  |  |
| CCCCCCCCCCCCCCCCCCN(CCCCC)C(=O)c1ccccc1-c1c2ccc(=[N+](CC)CC)cc-2oc2cc(N(CC)CC)ccc12.[Cl-] [Dye 6, Rhodamine B N-pentyloctadecanamide] | 4247970 | 2.36 | 20270 | found to incorporate into NHDFs |  |  |
| CCCCCCCCCCCCCCCCN(CCOC)C(=O)c1ccccc1-c1c2ccc(=[N+](CC)CC)cc-2oc2cc(N(CC)CC)ccc12.[Cl-] [Dye 7, Rhodamine B N-ethyl methyl ether hexadecanamide] | 1456410 | 1.38 | 97347 |  |  |  |
| CCCCCCCCCCCCCCCCCCN(CCOC)C(=O)c1ccccc1-c1c2ccc(=[N+](CC)CC)cc-2oc2cc(N(CC)CC)ccc12.[Cl-] [Dye 8, Rhodamine B N-ethyl methyl ether octadecanamide] | 3422473 | 2.92 | 83404 |  |  |  |
| CCCCCCCCCCCCCCCCCCN(CCO)C(=O)c1ccccc1-c1c2ccc(=[N+](CC)CC)cc-2oc2cc(N(CC)CC)ccc12.[Cl-] [Dye 9, Rhodamine B N-(2-hydroxyethyl)octadecanamide] | 4558422 | 3.33 | 83536 |  |  |  |
| CCCCCCCCCCCCCCCCCCCCN(CCOC)C(=O)c1ccccc1-c1c2ccc(=[N+](CC)CC)cc-2oc2cc(N(CC)CC)ccc12.[Cl-] [Dye 10, Rhodamine B N-ethyl methyl ether icosaneamide] | 2826617 | 2.55 | 45943 |  |  |  |
| CCCCCCCCCCCCCCCCCCCN(C)C(=O)c1ccccc1-c1c2ccc(=[N+](CC)CC)cc-2oc2cc(N(CC)CC)ccc12.[Cl-] [Dye 12, Rhodamine B N-methylnonadecylamide] |  |  |  |  | incorporated to the cells to a larger extent | incorporated to the cells to a larger extent |
| CCCCCCCCCCCCCCCCCCN(CCC)C(=O)c1ccccc1-c1c2ccc(=[N+](CC)CC)cc-2oc2cc(N(CC)CC)ccc12.[Cl-] [Dye 14, Rhodamine B N-propyloctadecylamide] |  |  |  |  | incorporated to the cells to a larger extent | incorporated to the cells to a larger extent |
| CCCCCCCCCCCCCCCCCCN(CC)C(=O)c1ccccc1-c1c2ccc(=[N+](CC)CC)cc-2oc2cc(N(CC)CC)ccc12.[Cl-] [Dye 15, Rhodamine B N-ethyloctadecylamide] |  |  |  |  | incorporated to the cells to a larger extent | incorporated to the cells to a larger extent |
| CCCCCCCC/C=C\CCCCCCCCN(C)C(=O)c1ccccc1-c1c2ccc(=[N+](CC)CC)cc-2oc2cc(N(CC)CC)ccc12 [Dye 17, Rhodamine B N-methyloleylamide] |  |  |  | found to incorporate into NHDFs | incorporated to the cells to a larger extent | incorporated to the cells to a larger extent |
| CCCCCCCC/C=C/CCCCCCCCN(C)C(=O)c1ccccc1-c1c2ccc(=[N+](CC)CC)cc-2oc2cc(N(CC)CC)ccc12 [Dye 18, Rhodamine B N-methylelaidylamide] |  |  |  | found to incorporate into NHDFs | incorporated to the cells to a larger extent | incorporated to the cells to a larger extent |
| CCCCCCCCCCCCCCCCCCN(C)C(=O)c1ccccc1-c1c2cc/c(=[N+](/CC)CC(F)(F)F)cc-2oc2cc(N(CC)CC(F)(F)F)ccc12.[Cl-] [Dye 23, hexafluoro Rhodamine B N-methyloctadecylamide] |  |  |  | found to incorporate into NHDFs |  |  |
| CCCCCCCC/C=C/CCCCCCCCN(C)C(=O)c1ccccc1-c1c2cc/c(=[N+](/CC)CC(F)(F)F)cc-2oc2cc(N(CC)CC(F)(F)F)ccc12.[Cl-] [Dye 24] |  |  |  | found to incorporate into NHDFs |  |  |
| CCCCCCCC/C=C\CCCCCCCCN(C)C(=O)c1ccccc1-c1c2cc/c(=[N+](/CC)CC(F)(F)F)cc-2oc2cc(N(CC)CC(F)(F)F)ccc12.[Cl-] [Dye 25, hexafluoro rhodamine B N-methyloleylamide] |  |  |  | found to incorporate into NHDFs |  |  |
